The nature of the experiment: Binding affinity to Trypanosoma cruzi farnesyl diphosphate synthase at 250 uM at 28 degC by isothermal titration calorimetry. On the technique in general: In ITC the heat of successive injections is recorded.

The values that follow come from ChEMBL document CHEMBL2163214, “Design, synthesis, calorimetry, and crystallographic analysis of 2-alkylaminoethyl-1,1-bisphosphonates as inhibitors of Trypanosoma cruzi farnesyl diphosphate synthase” (J Med Chem, 2012).

Broadly, the Kd is a measure of binding affinity in units of concentration. Low readings indicate tighter binding, high ones weaker binding.

Structures are written as SMILES.

In turn, `CCCCCCNCC(P(=O)(O)O)P(=O)(O)O` displayed a dissociation constant Kd of 400 nM.

`CCCCCCCNCC(P(=O)(O)O)P(=O)(O)O` had a dissociation constant (Kd) of 58.8 nM.

In turn, `CCCNCC(P(=O)(O)O)P(=O)(O)O` had a Kd of 25 nM.

The compound `CCCCCNCC(P(=O)(O)O)P(=O)(O)O` registered a Kd of 1030 nM.
